Key:
[1] = UV/visible absorbance after reacting the compound with lysine to mimic skin binding; type: physicochemical; conditions: for shift in UV absorbance peak on reaction with lysine: compound versus its lysine conjugate; for visible color after reaction with lysine / UV-light absorption after reaction with lysine: lysine conjugate, mimic of skin binding; for visible color after reaction with lysine: absorbance at wavelengths above 410 nm; for UV blocking activity: FIG. 6, salicylic acid as such, attached to hydrogenated genipin anchor, and bound to skin mimic; for UV-light absorption after reaction with lysine: absorbance at wavelengths below 410 nm; for absorbance properties / color of the dye compound after binding to lysine: versus the dye compound prior to conjugation with lysine, in solution, FIG. 3D
Excerpt: A hydrogenated genipin derivative (compound 1) was conjugated with lysine to obtain compound 1-lysine conjugate:
The azo-dye compound of example 5 was conjugated with lysine to obtain a conjugate:
The compound of Example 7 was conjugated with lysine to obtain the lysine conjugate:
The OL compound of example 8 was conjugated with lysine to obtain OL-lysine conjugate: […]

[2] = tested on: skin substrate (a porcine skin explant); test: Sunscreen application on skin substrate: UV-light absorption and retention after wiping, washing and scrubbing
Excerpt: When referring to protective groups hydrolysable under physiological conditions after application of the topical composition onto the skin here and elswhere in the dislcosure: Such groups are readily known to the skilled person and include, in particular acyl moieties such as optionally substituted acyl moieties comprising 1 to 30, more specifically 1 to 16, and in particular 1 to 12, carbon atoms; 0 to 12, more specifically 0 to 8, and in particular 0 to 6 oxygen atoms; 0 to 8, more specifically 0 to 6, and in particular 0 to 4 nitrogen atoms; 0 to 6, more specifically 0 to 4, and in particular 0 to 3 sulfur atoms; and 0 to 10, more specifically 0 to 8, and in particular 0 to 6 halogen atoms. Specific examples include C1-C18 acyl moieties, more specifically C1-C12 acyl moieties and in particular […]. When referring in this context to “physiological conditions” it should be understood that this in particular refers to the pH conditions encountered at the locus where the compound of formula (I) is supposed to bind to proteins in e.g. the stratum corneum and/or the epidermis of the (mammalian, in particular human) subject to be treated. […]

| shift in UV absorbance peak on reaction with lysine [1] | visible color after reaction with lysine [1] | UV-light absorption after reaction with lysine [1] | Compound | further results |
| --- | --- | --- | --- | --- |
| small shift in UV absorbance peak | almost no visible color | – | C/C=C1/[C@H](O)OC=C(C(=O)OC)[C@H]1CC(=O)OCCc1ccc(O)c(O)c1 [OL, methyl (4s,5e,6r)-4-[2-[2-(3,4-dihydroxyphenyl)ethoxy]-2-oxoethyl]-5-ethylidene-6-hydroxy-4h-pyran-3-carboxylate] | – |
| small shift | no visible color | strong UV-absorption | COC(=O)C1=COC(O)C2C(C)CCC12 (stereo not drawn) [Compound 1, methyl 1-hydroxy-7-methyl-1,4a,5,6,7,7a-hexahydrcyclopenta[c]pyran-4-carboxylate] | – |
| – | no visible color | strong UV-light absorption | COC(=O)C1=COC(O)C2C(CO)CCC12 (stereo not drawn) [Compound 2, methyl 1-hydroxy-7-(hydroxymethyl)-1,4a,5,6,7,7a-hexahydrocyclopenta[c]pyran-4-carboxylate] | – |
| – | no visible color | strong UV-light absorption | COC(=O)C1=CN(CCCCC(N)C(=O)O)C=C2C(COC(=O)c3ccccc3O)CCC12 (stereo not drawn) | – |
| small shift in UV absorbance peak | no visible color is produced | – | COC(=O)C1=COC(O)C2C(COC(=O)c3ccccc3O)CCC12 (stereo not drawn) [Example 7, methyl 1-hydroxy-7-(((2-hydroxybenzoyl)oxy)methyl)-1,4a,5,6,7,7a-hexahydrocyclopenta[c]pyran-4-carboxylate] | UV blocking activity [1]: retained |

The next lines start with the compound.

| Compound | shift in UV absorbance peak on reaction with lysine [1] | visible color after reaction with lysine [1] | UV-light absorption after reaction with lysine [1] | further results |
| --- | --- | --- | --- | --- |
| O=C(O)c1ccccc1O [salicylic acid, reference compound] | – | – | – | UV blocking activity [1]: UV blocking agent |
| C=CC1=CN(CCCCC(N)C(=O)O)C=C(C(=O)OC)C1CC(=O)OCCc1ccc(O)c(O)c1 (stereo not drawn) | – | no visible color | strong UV-light absorption | – |
| COC(=O)C1=COC(O)C2C(COC(=O)c3ccc(/N=N/c4ccccc4)cc3)CCC12 (stereo not drawn) [Example 5, methyl (E)-1-hydroxy-7-(((4-(phenyldiazenyl)benzoyl)oxy)methyl)-1,4a,5,6,7,7a-hexahydrocyclopenta[c]pyran-4-carboxylate] | – | – | – | absorbance properties / color of the dye compound after binding to lysine [1]: does not alter absorbance properties; absorbance properties / color of the dye compound after binding to lysine ([1]; listed as azo-dye-anchor molecule): retains its original color |
| CCCCC(CC)COC(=O)c1ccccc1O (stereo not drawn) [octisalate] | – | – | – | UV-light absorption on the skin substrate and removability after wiping ([2]; 50 mM solutions, 2 and 4 hours after application, wiped with a wet tissue at 4 hours, UV light 254 nm, FIG. 4): easily removable from the skin; UV-light absorption / presence on the skin substrate after washing and scrubbing ([2]; 24 and 26 hours total contact time, submerged in water for 2 hours and scrubbed vigorously, UV camera with UV-B filter, FIG. 5): no longer present |
| COC(=O)C1=CN(CCCCC(N)C(=O)O)C=C2C(C)CCC12 (stereo not drawn) [compound 1-lysine conjugate] | – | no visible color | strong UV-light absorption | – |
